Data: publication PMC6985109, “Cellular apoptosis and necrosis as therapeutic targets for novel Eugenol Tosylate Congeners against Candida albicans” (Scientific Reports, 2020)

Tested on: C. albicans 4175, C. albicans 5112 and C. albicans SC5314
Test: FITC annexin V/PI staining flow cytometry, ranges over three strains
Assay type: cell-based, Candida albicans
Details: range over 0.5 × MIC, 1 × MIC, 2 × MIC and three strains
Experimental: To study the effect of test compounds on apoptotic markers protoplasts were prepared as described previously, with modifications. Briefly, mid-exponential phase cells were harvested and exposed to various concentrations of test compounds (0.5 × MIC, 1 × MIC and 2×MIC) for 3 h. The cells were then washed twice with protoplast buffer- I (1 M sorbitol, 50 mM tris base, 10 mM MgCl2 and 30 mM DTT) and incubated in the same buffer for 15 minutes at 25 °C, followed by centrifugation at 1500 rpm for 5 minutes. Supernatant was removed and cells were incubated with buffer- II (1 M sorbitol, 50 mM tris base, 10 mM MgCl2 and 1 mM DTT) supplemented with lyticase enzyme (≥1 µg/mL) used to digest the cell wall for 1 h at 25 °C. Buffer- II were removed by centrifugation and then cells were incubated with buffer- III (1 M sorbitol, 50 mM tris base and 10 mM MgCl2) for 20 minutes at room temperature. After the incubation cells were again centrifuged at 1500 rpm for 5 minutes and supernatant was discarded. Protoplasts then finally washed once with PBS and re-suspended in the same for further use. In each washing steps the volume of these protoplast buffers were 5 times to cell volume with pH 7.4.
This assay was used to identify early apoptosis by detecting movement of phosphatidylserine (PS) from the inner to the outer leaflet of plasma membrane. FITC annexin V Apoptosis Detection Kit I (BD Biosciences, CA, USA) was used according to the manufacturer’s instructions. Protoplasts of C. albicans cells treated with different concentrations of the test compounds, as mentioned in above section, were resuspended in 1X annexin V binding buffer ([…]) at a concentration of 1 × 10^6 cells per ml. To the 100 µl of this solution, 5 µl each of FITC annexin V and propidium iodide (PI) was added. Tubes were gently vortexed and incubated for 15 minutes at 25 °C in the dark. After incubation, 400 µl of 1X annexin V binding buffer was added to each tube and analyzed using the BD LSRFortessa Flow cytometer (Becton Dickinson, NJ, USA). The cell populations in four different quadrants of a quadrant dot plot were analyzed and interpreted as; Q1: necrosis (annexin V^−/PI^+), Q2: late apoptosis (annexin V^+/PI^+), Q3: early apoptosis (annexin V^+/PI^−) and Q4: viable cells (annexin V^−/PI^−), by using software FlowJo_V10.

C=CCc1ccc(OS(=O)(=O)c2ccc(C(=O)O)cc2)c(OC)c1 [ETC-7, 4-{[2-methoxy-4-(prop-2-en-1-yl)phenoxy]sulfonyl}benzoic acid]
early apoptosis: 8–32% | late apoptosis: 2–26% | necrosis: 1–31%
